# Source: patent US20230321261A1, “AXL-SPECIFIC ANTIBODY-DRUG CONJUGATES FOR CANCER TREATMENT” (GENMAB A/S, priority 2016, published 2023)
# Values joined by “and” are separate entries in the source; they are usually repeats but may differ in a detail not shown here. Identical values can stand only once.
# What was measured:
# [1] = tested on: T1, MEK½; conditions: Pheneger et al., 2006; read-out: Primary Target(s) (IC50): MEK½; cited from earlier work
# T1 construct: other: Pheneger et al., 2006
# [2] = target: MEK1 (Homo sapiens, UniProt Q02750); conditions: read-out: Primary Target(s) (IC50): MEK1; cited from earlier work
# MEK1, sequence (Q02750 whole entry): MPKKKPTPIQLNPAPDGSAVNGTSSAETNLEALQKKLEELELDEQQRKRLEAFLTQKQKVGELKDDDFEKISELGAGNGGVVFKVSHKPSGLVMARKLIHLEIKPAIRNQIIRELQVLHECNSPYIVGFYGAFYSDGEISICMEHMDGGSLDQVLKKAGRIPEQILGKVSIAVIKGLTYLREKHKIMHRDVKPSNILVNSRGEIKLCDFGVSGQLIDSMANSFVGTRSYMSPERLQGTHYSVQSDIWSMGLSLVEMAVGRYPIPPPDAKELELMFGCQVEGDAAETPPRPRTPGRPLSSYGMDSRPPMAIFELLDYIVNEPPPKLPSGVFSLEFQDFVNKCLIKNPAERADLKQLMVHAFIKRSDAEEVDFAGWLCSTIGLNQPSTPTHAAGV
# [3] = tested on: SKMEL28; test: Melanoma cell viability (CellTiter-Glo); format: cell-based, human; conditions: for HuMax-AXL-ADC sensitivity: 0.0001 to 10 µg/mL, 5 days
# [4] = tested on: A875; test: Melanoma cell viability (CellTiter-Glo); format: cell-based, human; conditions: for HuMax-AXL-ADC sensitivity: 0.0001 to 10 µg/mL, 5 days
# [5] = tested on: FM6; test: NRAS mutant melanoma cell viability (CellTiter-Glo); format: cell-based, human
# [6] = tested on: SKMEL2; test: as above; format: cell-based, human
# [7] = tested on: SKMEL2R; test: as above; format: cell-based, human
# [8] = tested on: A375R; test: Melanoma cell viability (CellTiter-Glo); format: cell-based, human
# [9] = tested on: M082; test: Patient-derived melanoma culture viability (CellTiter-Glo); format: cell-based, human; conditions: for HuMax-AXL-ADC sensitivity: 8 days
# [10] = tested on: M019R; test: as above; format: cell-based, human
# [11] = tested on: SKMEL28R; test: Melanoma cell viability (CellTiter-Glo); format: cell-based, human; conditions: for HuMax-AXL-ADC sensitivity: 0.0001 to 10 µg/mL, 5 days
# [12] = tested on: M016; test: Patient-derived melanoma culture viability (CellTiter-Glo); format: cell-based, human; conditions: for HuMax-AXL-ADC sensitivity: 8 days
# [13] = tested on: SKMEL147; test: Melanoma cell viability (CellTiter-Glo); format: cell-based, human; conditions: for HuMax-AXL-ADC sensitivity: 0.0001 to 10 µg/mL, 5 days
# [14] = tested on: BLM; test: NRAS mutant melanoma cell viability (CellTiter-Glo); format: cell-based, human
# [15] = tested on: C-Raf/BRAF/BRAF V600E; conditions: read-out: Primary Target(s) (IC50): C-Raf/BRAF/BRAF V600E; Mordant et al., 2010; cited from earlier work
# [16] = target: C-Raf (Homo sapiens, UniProt P04049); conditions: literature reference per drug in Table 1; read-out: Primary Target(s) (IC50): C-Raf (also printed Raf-1, C-Raf-1, C-RAF); cited from earlier work
# C-Raf, sequence (P04049 whole entry): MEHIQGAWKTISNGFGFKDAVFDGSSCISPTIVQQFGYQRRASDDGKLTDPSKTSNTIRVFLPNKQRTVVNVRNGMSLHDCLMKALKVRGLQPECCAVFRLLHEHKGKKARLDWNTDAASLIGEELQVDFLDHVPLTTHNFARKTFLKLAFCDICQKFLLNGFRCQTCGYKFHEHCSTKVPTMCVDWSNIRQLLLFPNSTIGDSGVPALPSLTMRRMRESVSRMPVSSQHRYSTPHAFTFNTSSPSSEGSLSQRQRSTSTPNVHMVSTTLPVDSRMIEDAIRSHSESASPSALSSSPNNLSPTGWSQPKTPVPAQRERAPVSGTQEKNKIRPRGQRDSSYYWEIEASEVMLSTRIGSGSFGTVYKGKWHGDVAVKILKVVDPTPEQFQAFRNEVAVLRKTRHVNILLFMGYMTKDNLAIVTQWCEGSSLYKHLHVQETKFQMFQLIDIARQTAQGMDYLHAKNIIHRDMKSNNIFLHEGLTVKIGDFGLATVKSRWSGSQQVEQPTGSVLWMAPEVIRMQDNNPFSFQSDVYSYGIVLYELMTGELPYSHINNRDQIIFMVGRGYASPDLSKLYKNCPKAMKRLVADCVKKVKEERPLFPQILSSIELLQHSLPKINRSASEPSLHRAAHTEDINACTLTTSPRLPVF
# [17] = target: MAP4K5 (KHS1) (Homo sapiens, UniProt Q9Y4K4); conditions: Bollag et al., 2010; read-out: Primary Target(s) (IC50): MAP4K5 (KHS1); cited from earlier work
# MAP4K5 (KHS1), sequence (Q9Y4K4 whole entry, species assumed): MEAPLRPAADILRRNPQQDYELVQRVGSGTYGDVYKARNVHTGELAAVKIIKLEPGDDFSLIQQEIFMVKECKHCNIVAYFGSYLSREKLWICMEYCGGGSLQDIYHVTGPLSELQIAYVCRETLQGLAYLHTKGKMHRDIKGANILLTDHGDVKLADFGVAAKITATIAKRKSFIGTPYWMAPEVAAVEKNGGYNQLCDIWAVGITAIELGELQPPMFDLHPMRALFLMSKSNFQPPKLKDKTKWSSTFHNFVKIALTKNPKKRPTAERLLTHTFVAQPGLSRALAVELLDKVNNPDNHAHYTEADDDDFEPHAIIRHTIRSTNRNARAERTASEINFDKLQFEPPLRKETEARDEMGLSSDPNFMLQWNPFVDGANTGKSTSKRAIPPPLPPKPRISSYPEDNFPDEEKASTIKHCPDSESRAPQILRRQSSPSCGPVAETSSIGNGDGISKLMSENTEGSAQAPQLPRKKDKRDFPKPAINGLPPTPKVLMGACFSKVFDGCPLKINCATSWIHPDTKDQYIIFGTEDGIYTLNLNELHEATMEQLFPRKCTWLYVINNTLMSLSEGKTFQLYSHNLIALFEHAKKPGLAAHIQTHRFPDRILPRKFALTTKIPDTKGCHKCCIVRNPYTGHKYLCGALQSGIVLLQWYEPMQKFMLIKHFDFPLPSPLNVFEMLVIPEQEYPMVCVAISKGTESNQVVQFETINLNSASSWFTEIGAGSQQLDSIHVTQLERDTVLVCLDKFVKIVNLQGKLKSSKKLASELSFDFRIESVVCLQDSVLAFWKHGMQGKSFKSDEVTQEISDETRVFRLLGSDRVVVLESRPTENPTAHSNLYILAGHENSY
# [18] = tested on: PAXF1657 tumors; test: PAXF1657 pancreas cancer PDX model; format: in vivo, NMRI nu/nu mice; conditions: day 0
# [19] = tested on: LCLC-103H xenograft tumors; test: LCLC-103H xenograft model; format: in vivo, SCID mice
# Protocol: 5 × 10^6 LCLC-103H (large cell lung carcinoma) tumor cells (obtained from Leibniz-Institut DSMZ-Deutsche Sammlung von Mikroorganismen und Zellkulturen GmbH (DSMZ)) in 200 µL PBS were injected subcutaneously in the right flank of female SCID mice. Starting 14-21 days after tumor cell inoculation, when the average tumor size was >100-200 mm^3 and distinct tumor growth was observed, a single injection with 1 mg/kg (20 µg/mouse) IgG1-AXL-vcMMAE antibodies (as described in Supplementary Example 1) or control (unconjugated IgG1-b12) was given intraperitoneally (100 µL/mouse). Tumor volume was determined at least two times per week. Tumor volumes (mm^3) were calculated from caliper (PLEXX) measurements as: 0.52 × (length) × (width)^2.
# Tumor induction was performed by subcutaneous injection of 5 × 10^6 A431 or LCLC-103H tumor cells (both obtained from Leibniz-Institut - Deutsche Sammlung von Mikroorganismen und Zellkulturen GmbH (DSMZ)) in 200 µL PBS in the right flank of female SCID mice. Treatment was started 14-21 days after tumor cell inoculation, when the average tumor size was >100-200 mm^3 and distinct tumor growth was observed. […] Tumor volume was determined at least two times per week. Tumor volumes (mm^3) were calculated from caliper (PLEXX) measurements as: 0.52 × (length) × (width)^2.
# [20] = tested on: A431 tumors; test: A431 xenograft model (high Gas6); format: in vivo, SCID mice; conditions: 3 mg/kg
# Protocol: Tumor induction was performed by subcutaneous injection of 5 × 10^6 A431 or LCLC-103H tumor cells (both obtained from Leibniz-Institut - Deutsche Sammlung von Mikroorganismen und Zellkulturen GmbH (DSMZ)) in 200 µL PBS in the right flank of female SCID mice. Treatment was started 14-21 days after tumor cell inoculation, when the average tumor size was >100-200 mm^3 and distinct tumor growth was observed. Mice received a single injection or a total of 4 biweekly intraperitoneal injections with IgG1-AXL-vcMMAE ADCs or control antibody (unconjugated IgG1-b12), as indicated. Tumor volume was determined at least two times per week. Tumor volumes (mm^3) were calculated from caliper (PLEXX) measurements as: 0.52 × (length) × (width)^2.
# [21] = tested on: COLO679; test: Melanoma cell viability (CellTiter-Glo); format: cell-based, human; conditions: 0.0001 to 10 µg/mL, 5 days
# [22] = tested on: SKMEL147 tumors; test: SKMEL147 melanoma xenograft model; format: in vivo, NMRI nude mice
# [23] = tested on: A431 cells; test: Antibody-dependent cell-mediated cytotoxicity (51Cr release); format: cell-based, human; conditions: concentrations up to 10 µg/mL; PBMC effector to target ratio 100:1
# Protocol: The ability of anti-AXL antibodies to induce ADCC of A431 epidermoid carcinoma cells was determined as explained below. As effector cells, peripheral blood mononuclear cells from healthy volunteers (UMC Utrecht, The Netherlands) were used.
# A431 cells were collected (5×10^6 cells) in culture medium (RPMI 1640 culture medium supplemented with 10% fetal calf serum (FSC)), to which 100 µCi ^51Cr (Chromium-51; Amersham Biosciences Europe GmbH, Roosendaal, The Netherlands) had been added, and the mixture was incubated in a 37° C. water bath for 1 hour (hr) while shaking. After washing of the cells (twice in PBS, 1200 rpm, 5 min), the cells were resuspended in RPMI1640/10% FSC and counted by trypan blue exclusion. […]
# Peripheral blood mononuclear cells (healthy volunteers, UMC Utrecht, Utrecht, The Netherlands) were isolated from 45 mL of freshly drawn heparin blood by Ficoll (Bio Whittaker; lymphocyte separation medium, cat 17-829E) according to the manufacturer’s instructions. After resuspension of cells in RPMI1640/10% FSC, cells were counted by trypan blue exclusion and diluted to a density of 1×10^7 cells/mL.
# 50 µl of ^51Cr-labeled targets cells were pipetted into 96-well plates, and 50 µl of antibody were added, diluted in RPMI1640/10% FSC (3-fold dilutions at final concentrations range 0.01-10 µg/mL). […] The percentage specific lysis was calculated as follows: […]
# [24] = 4 mg/kg i.v. on day 12 and day 19 after tumor cell injection
compound,measurement,setting,value
"Cn1cnc2c(F)c(Nc3ccc(Br)cc3F)c(C(=O)NOCCO)cc21 [Binimetinib, 1H-Benzimidazole-6-carboxamide, 5-[(4-bromo-2-fluorophenyl)amino]-4-fluoro-N-(2-hydroxyethoxy)-1-methyl-]",IC50,[1],~12 nM and 12 nM
"O=C(c1ccc(F)c(F)c1Nc1ccc(I)cc1F)N1CC(O)([C@@H]2CCCCN2)C1 [Cobimetinib, [3,4-difluoro-2-[(2-fluoro-4-iodophenyl)amino]phenyl][3-hydroxy-3-(2S)-2-piperidinyl-1-azetidinyl]-methanone]",IC50,[2],~4.2 nM
"CCCS(=O)(=O)Nc1ccc(F)c(C(=O)c2c[nH]c3ncc(Cl)cc23)c1F [PLX4720, N-(3-(5-chloro-1H-pyrrolo[2,3-b]pyridine-3-carbonyl)-2,4-difluorophenyl)propane-1-sulfonamide]",PLX4720 sensitivity,[3],sensitive
same,PLX4720 sensitivity,[4],sensitive
same,PLX4720 sensitivity,[5],insensitive
same,PLX4720 sensitivity,[6],insensitive
same,PLX4720 sensitivity,[7],insensitive
same,PLX4720 sensitivity,[8],resistant
same,PLX4720 sensitivity,[9],resistant
same,PLX4720 sensitivity,[10]; M019R (Table 16),resistant
same,drug sensitivity in vitro: PLX4720 sensitivity,"[10]; M019R, 8 days",insensitive
same,PLX4720 sensitivity,[11],resistant
same,PLX4720 sensitivity,[12],resistant
same,PLX4720 sensitivity,[13],resistant
same,PLX4720 sensitivity,[14],insensitive
"Cn1c(Nc2ccc(C(F)(F)F)cc2)nc2cc(Oc3ccnc(-c4ncc(C(F)(F)F)[nH]4)c3)ccc21 [RAF265, 1-methyl-5-[2-[5-(trifluoromethyl)-1H-imidazol-2-yl]pyridin-4-yl]oxy-N-[4-(trifluoromethyl)phenyl]benzimidazol-2-amine]",IC50,[15],3 to 60 nM
"CN(C)CCOc1ccc(-c2nc(-c3ccncc3)c(-c3ccc4c(c3)CC/C4=N\O)[nH]2)cc1 [SB590885, (E)-5-(2-(4-(2-(dimethylamino)ethoxy)phenyl)-4-(pyridin-4-yl)-1H-imidazol-5-yl)-2,3-dihydroinden-1-one oxime]",IC50,[16],1.72 nM
"CC(=O)Nc1cccc(-n2c(=O)n(C3CC3)c(=O)c3c(Nc4ccc(I)cc4F)n(C)c(=O)c(C)c32)c1 [Trametinib, N-(3-(3-cyclopropyl-5-(2-fluoro-4-iodophenylamino)-6,8-dimethyl-2,4,7-trioxo-3,4,6,7-tetrahydropyrido[4,3-d]pyrimidin-1(2H)-yl)phenyl)acetamide]",trametinib sensitivity,[6],sensitive
same,trametinib sensitivity,[7],insensitive
same,drug sensitivity in vitro: trametinib sensitivity,"[10]; M019R, 8 days",insensitive
"CCCS(=O)(=O)Nc1ccc(F)c(C(=O)c2c[nH]c3ncc(-c4ccc(Cl)cc4)cc23)c1F [Vemurafenib, N-[3-[[5-(4-chlorophenyl)-1H-pyrrolo[2,3-b]pyridin-3-yl]carbonyl]-2,4-difluorophenyl]-1-propanesulfonamide]",IC50,[17],51 nM
IgG1-AXL-107-vcMMAE,HuMax-AXL-ADC sensitivity,[3],did not show changes in viability
same,HuMax-AXL-ADC sensitivity,[3]; listed as HuMax-AXL-ADC,Resistant
same,HuMax-AXL-ADC sensitivity,[4],sensitive
same,HuMax-AXL-ADC sensitivity,[4]; listed as HuMax-AXL-ADC,Sensitive
same,growth of PAXF1657 tumors compared to the control group,[18]; 2 mg/kg i.v.,significantly reduced the growth
same,growth of PAXF1657 tumors,[18]; 4 mg/kg i.v.,induced tumor regression
same,HuMax-AXL-ADC sensitivity,[9],did not show a different response
same,HuMax-AXL-ADC sensitivity,[9]; listed as HuMax-AXL-ADC,Insensitive
same,anti-tumor activity in the LCLC-103H xenograft model,"[19]; 1 mg/kg (Example 13, FIG. 14B)",regression
same,anti-tumor activity in established SC LCLC-103H tumors,[19]; single injection 1 mg/kg intraperitoneally (Example 9),tumor regression
same,anti-tumor activity in the A431 xenograft model,[20],growth inhibition
same,HuMax-AXL-ADC sensitivity,[21],did not show changes in viability
same,HuMax-AXL-ADC sensitivity,[21]; listed as HuMax-AXL-ADC,Resistant
same,HuMax-AXL-ADC sensitivity,[11],sensitive
same,HuMax-AXL-ADC sensitivity,[11]; listed as HuMax-AXL-ADC,Sensitive
same,anti-tumor activity in the SKMEL147 melanoma xenograft model,[22]; 2 mg/kg i.v. on day 12 and day 19 after tumor cell injection,tumor growth inhibition
same,day until which tumor regression lasted,[22]; 4 mg/kg,~50 days
same,anti-tumor activity in the SKMEL147 melanoma xenograft model,[22]; [24],strong tumor regression
same,anti-tumor activity in the SKMEL147 melanoma xenograft model,"[22]; 4 mg/kg i.v. on day 12 and day 19 after tumor cell injection, listed as HuMax-AXL-ADC",profound anti-tumor effect
same,effect of retreatment after tumor regrowth,"[22]; single dose of 4 mg/kg on day 55, n=4",tumor regression in all four mice
same,HuMax-AXL-ADC sensitivity,[12],sensitive
same,HuMax-AXL-ADC sensitivity,[12]; listed as HuMax-AXL-ADC,Sensitive
same,HuMax-AXL-ADC sensitivity,[13],sensitive
same,HuMax-AXL-ADC sensitivity,[13]; listed as HuMax-AXL-ADC,Sensitive
"IgG1-AXL-107: AXL-specific human IgG1,κ antibody, VH SEQ ID NO:1, VL SEQ ID NO:2, Ig1 domain binding",anti-tumor activity in the SKMEL147 melanoma xenograft model,[22]; [24],did not show tumor growth inhibition
same,ADCC in A431 cells (percentage specific lysis),[23],did not induce significant ADCC
